The values that follow are results of earlier work, collected in publication PMC7709506 (ESMO Open, 2020).

The structures appear in SMILES notation.

This data set relates to cell lines with increased FGFR activity. The conditions noted are these: cell lines with increased FGFR activity and known dependency on FGFR signalling; cited from earlier work.

Turning to `Cn1cc(-c2ccc3c(c2)ncn3-c2cc(NS(=O)(=O)C3CC3)cc(-c3ccc(F)cc3F)c2)cn1` [ODM-203], the cell proliferation result is given as “suppresses cell proliferation”.
